# Activity calls are given as the source filed them. The calls are words filed in the database; no cut-off is given here.
# Experiments:
# [1] = Clearance in BALB/c mouse at 0.5 mg/kg, iv measured up to 48 hrs by LC-MS/MS analysis; type: ADME, organism-based; details: in vivo
# [2] = tested on: Mus musculus; assay: Anti-hyperglycemic activity in type-2 diabetes db/db mouse assessed as regulation of blood glucose level administered subcutaneously measured up to 96 hrs; type: functional, organism-based; details: dose 3-600 nmol/kg, route sc
# [3] = tested on: Mus musculus; assay: Anti-hyperglycemic activity in 16 hr-fasted type-2 diabetes db/db mouse at 100 nmol/kg, sc pretreated for 0.5 hrs followed by glucose administration measured for 2 hrs by OGTT method; type: functional, organism-based; details: time 2.5 hrs
# [4] = Tmax in Sprague-Dawley rat at 1 mg/kg, sc measured up to 48 hrs by LC-MS/MS analysis; type: ADME, organism-based; details: in vivo
# [5] = molecular target: T1, Dipeptidyl peptidase 4 (Rattus norvegicus, UniProt P14740); assay: Stability in Sprague-Dawley rat plasma assessed as DPP4-mediated drug degradation by measuring Lys(CBB) metabolite formation measured after 96 hrs by mass spectrometry; type: ADME, cell-free
# T1 sequence (P14740 whole entry): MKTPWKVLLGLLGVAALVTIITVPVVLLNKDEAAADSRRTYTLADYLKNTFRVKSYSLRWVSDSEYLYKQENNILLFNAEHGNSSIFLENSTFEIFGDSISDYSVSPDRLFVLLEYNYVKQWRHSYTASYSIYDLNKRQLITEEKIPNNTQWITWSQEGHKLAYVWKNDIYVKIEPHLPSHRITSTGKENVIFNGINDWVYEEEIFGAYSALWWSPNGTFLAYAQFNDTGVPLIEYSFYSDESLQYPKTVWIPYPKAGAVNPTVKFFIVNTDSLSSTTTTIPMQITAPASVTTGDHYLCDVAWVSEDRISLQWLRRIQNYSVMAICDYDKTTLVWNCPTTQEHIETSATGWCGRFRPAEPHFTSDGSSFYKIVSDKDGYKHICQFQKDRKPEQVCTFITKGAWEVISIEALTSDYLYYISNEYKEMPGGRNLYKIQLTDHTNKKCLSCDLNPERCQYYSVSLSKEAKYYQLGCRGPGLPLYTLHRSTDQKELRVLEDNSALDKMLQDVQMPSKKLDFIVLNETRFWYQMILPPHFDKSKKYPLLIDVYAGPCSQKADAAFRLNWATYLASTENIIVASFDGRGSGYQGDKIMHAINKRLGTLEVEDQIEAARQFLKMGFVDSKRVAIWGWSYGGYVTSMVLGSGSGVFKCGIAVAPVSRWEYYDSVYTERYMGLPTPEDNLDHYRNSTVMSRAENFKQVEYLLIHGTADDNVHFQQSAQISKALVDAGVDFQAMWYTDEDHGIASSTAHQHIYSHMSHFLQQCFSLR
# [6] = tested on: Mus musculus; assay: Anti-hyperglycemic activity in well-fed type-2 diabetes db/db mouse assessed as blood glucose level at 100 nmol/kg, sc administered on every 48 hrs; type: functional
# [7] = tested on: Mus musculus; assay: Anti-hyperglycemic activity in type-2 diabetes db/db mouse assessed as regulation of blood glucose level at 3 to 600 nmol/kg, sc measured up to 96 hrs; type: functional, organism-based
# [8] = AUClast in Sprague-Dawley rat at 1 mg/kg, iv measured up to 48 hrs by LC-MS/MS analysis; type: ADME, organism-based; details: in vivo
# [9] = molecular target: T2, Glucagon-like peptide 1 receptor (Homo sapiens, UniProt P43220); assay: Agonist activity at GLP-1R (unknown origin) expressed in HEK293 cells co-expressing CRE-Luc assessed as increase in intracellular cAMP accumulation by luciferase based assay; type: functional, cell-based; details: read-out: EC50
# T2 sequence (P43220 whole entry): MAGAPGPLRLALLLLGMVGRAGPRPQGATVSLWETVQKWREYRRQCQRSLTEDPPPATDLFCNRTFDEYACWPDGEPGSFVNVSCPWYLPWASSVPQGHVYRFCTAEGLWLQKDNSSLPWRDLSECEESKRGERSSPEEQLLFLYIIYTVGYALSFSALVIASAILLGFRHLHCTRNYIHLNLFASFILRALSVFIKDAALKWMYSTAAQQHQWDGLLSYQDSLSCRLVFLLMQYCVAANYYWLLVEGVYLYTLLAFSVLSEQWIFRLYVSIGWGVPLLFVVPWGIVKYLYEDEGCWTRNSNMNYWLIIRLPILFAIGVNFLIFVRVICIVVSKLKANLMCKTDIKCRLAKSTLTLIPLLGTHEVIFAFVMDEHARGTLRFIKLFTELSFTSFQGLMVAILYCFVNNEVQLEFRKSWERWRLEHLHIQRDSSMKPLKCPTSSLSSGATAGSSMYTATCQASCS
# [10] = Apparent volume of distribution in Sprague-Dawley rat at 1 mg/kg, iv measured up to 48 hrs by LC-MS/MS analysis; type: ADME, organism-based; details: in vivo, read-out: Vz
# [11] = Tmax in BALB/c mouse at 0.5 mg/kg, sc measured up to 48 hrs by LC-MS/MS analysis; type: ADME, organism-based; details: in vivo
# [12] = Stability in Sprague-Dawley rat plasma assessed as drug degradation by measuring half life measured after 96 hrs by RP-HPLC analysis; type: ADME, cell-free
# [13] = AUClast in Sprague-Dawley rat at 1 mg/kg, sc measured up to 48 hrs by LC-MS/MS analysis; type: ADME, organism-based; details: in vivo
# [14] = molecular target: Albumin (Homo sapiens, UniProt P02768); assay: Binding affinity to human serum albumin immobilized on AR2G biosensor assessed as dissociation constant incubated for 3 mins by BLI assay; type: ADME
# Sequence of Albumin (P02768 whole entry): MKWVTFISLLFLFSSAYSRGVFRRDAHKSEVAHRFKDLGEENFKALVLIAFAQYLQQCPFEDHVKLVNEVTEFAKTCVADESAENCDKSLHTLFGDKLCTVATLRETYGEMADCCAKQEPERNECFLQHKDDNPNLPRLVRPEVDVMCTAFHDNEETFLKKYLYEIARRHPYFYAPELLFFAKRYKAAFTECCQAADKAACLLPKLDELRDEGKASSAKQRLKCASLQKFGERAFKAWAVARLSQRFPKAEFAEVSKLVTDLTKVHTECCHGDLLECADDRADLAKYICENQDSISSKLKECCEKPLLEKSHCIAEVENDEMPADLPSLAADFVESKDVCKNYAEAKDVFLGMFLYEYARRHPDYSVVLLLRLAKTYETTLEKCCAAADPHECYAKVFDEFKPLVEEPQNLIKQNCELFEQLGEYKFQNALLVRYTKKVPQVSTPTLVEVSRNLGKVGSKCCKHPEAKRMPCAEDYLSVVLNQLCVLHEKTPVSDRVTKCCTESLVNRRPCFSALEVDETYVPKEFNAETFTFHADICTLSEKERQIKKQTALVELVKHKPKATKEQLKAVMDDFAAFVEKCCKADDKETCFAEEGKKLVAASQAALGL
# [15] = Selectivity ratio of EC50 for agonist activity at GLP-1R (unknown origin) expressed in HEK293 cells co-expressing CRE-Luc assessed as increase in intracellular cAMP accumulation in presence of 2% HSA to EC50 for agonist activity at GLP-1R (unknown origin) expressed in HEK293 cells co-expressing CRE-Luc assessed as increase in intracellular cAMP accumulation; type: cell-based
# [16] = Clearance in Sprague-Dawley rat at 1 mg/kg, iv measured up to 48 hrs by LC-MS/MS analysis; type: ADME, organism-based; details: in vivo
# [17] = molecular target: T2, Glucagon-like peptide 1 receptor; assay: Agonist activity at GLP-1R (unknown origin) expressed in HEK293 cells co-expressing CRE-Luc assessed as increase in intracellular cAMP accumulation in presence of 10% FBS by luciferase based assay; type: functional, cell-based; details: read-out: EC50
# [18] = MRT in BALB/c mouse at 0.5 mg/kg, sc measured up to 48 hrs by LC-MS/MS analysis; type: ADME, organism-based; details: in vivo
# [19] = tested on: Mus musculus; assay: Anti-hyperglycemic activity in type-2 diabetes db/db mouse assessed as blood glucose level at 3 to 600 nmol/kg, sc measured up to 48 hrs; type: functional; details: dose 3-600 nmol/kg
# [20] = Half life in Sprague-Dawley rat at 1 mg/kg, sc measured up to 48 hrs by LC-MS/MS analysis; type: ADME, organism-based; details: in vivo
# [21] = MRT in Sprague-Dawley rat at 1 mg/kg, sc measured up to 48 hrs by LC-MS/MS analysis; type: ADME, organism-based; details: in vivo
# [22] = tested on: Mus musculus; assay: Anti-hyperglycemic activity in 16 hr-fasted type-2 diabetes db/db mouse assessed as homeostasis of blood glucose level at 100 nmol/kg, sc pretreated for 0.5 hrs followed by glucose administration measured for 2 hrs; type: functional, organism-based; details: time 2.5 hrs
# [23] = Half life in BALB/c mouse at 0.5 mg/kg, sc measured up to 48 hrs by LC-MS/MS analysis; type: ADME, organism-based; details: in vivo
# [24] = molecular target: T1, Dipeptidyl peptidase 4; assay: Stability in Sprague-Dawley rat plasma assessed as DPP4-mediated drug degradation by measuring Lys(CBB)Gly metabolite formation measured after 96 hrs by mass spectrometry; type: ADME, cell-free
# [25] = Apparent volume of distribution in BALB/c mouse at 0.5 mg/kg, iv measured up to 48 hrs by LC-MS/MS analysis; type: ADME, organism-based; details: in vivo, read-out: Vz
# [26] = Stability in Sprague-Dawley rat plasma assessed as compound remaining measured after 96 hrs by RP-HPLC analysis; type: ADME, cell-free; details: read-out: Stability
# [27] = tested on: Mus musculus; assay: Anti-hyperglycemic activity in type-2 diabetes db/db mouse assessed as reduction in food intake at 100 nmol/kg, sc measured for 48 hrs; type: functional, organism-based
# [28] = AUClast in BALB/c mouse at 0.5 mg/kg, iv measured up to 48 hrs by LC-MS/MS analysis; type: ADME, organism-based; details: in vivo
# [29] = Binding affinity to collagen type I (unknown origin) immobilized on AR2G biosensor assessed as dissociation constant incubated for 3 mins by BLI assay; design: species or system Homo sapiens
# [30] = molecular target: T2, Glucagon-like peptide 1 receptor; assay: Agonist activity at GLP-1R (unknown origin) expressed in HEK293 cells co-expressing CRE-Luc assessed as increase in intracellular cAMP accumulation in presence of 2% HSA by luciferase based assay; type: functional, cell-based; details: read-out: EC50
# [31] = AUClast in BALB/c mouse at 0.5 mg/kg, sc measured up to 48 hrs by LC-MS/MS analysis; type: ADME, organism-based; details: in vivo
structure (smiles),measurement,setting,value
CCOc1ccc(Nc2ccc(/C(=C3C=C/C(=[N+](\CC)Cc4cccc(S(=O)(=O)[O-])c4)C=C\3C)c3ccc(N(CC)Cc4cccc(S(=O)(=O)NCCCCCC(=O)NCCOCCOCCOCCOCCOCCOCCOCCOCCC(=O)NCCCC[C@H](NC(=O)[C@@H](NC(=O)[C@H](CC(C)C)NC(=O)[C@H](Cc5c[nH]c6ccccc56)NC(=O)[C@H](C)NC(=O)[C@@H](NC(=O)[C@H](Cc5ccccc5)NC(=O)[C@H](CCC(=O)O)NC(=O)[C@H](CCCNC(=N)N)NC(=O)[C@H](C)NC(=O)[C@H](C)NC(=O)[C@H](CCC(N)=O)NC(=O)CNC(=O)[C@H](CCC(=O)O)NC(=O)[C@H](CC(C)C)NC(=O)[C@H](Cc5ccc(O)cc5)NC(=O)[C@H](CO)NC(=O)[C@H](CO)NC(=O)[C@@H](NC(=O)[C@H](CC(=O)O)NC(=O)[C@H](CO)NC(=O)[C@@H](NC(=O)[C@H](Cc5ccccc5)NC(=O)[C@@H](NC(=O)CNC(=O)[C@H](CCC(=O)O)NC(=O)CNC(=O)[C@@H](N)Cc5c[nH]cn5)[C@@H](C)O)[C@@H](C)O)C(C)C)[C@@H](C)CC)C(C)C)C(=O)NCC(=O)N[C@@H](CCCNC(=N)N)C(N)=O)c4)cc3C)cc2)cc1,clearance,[1],0.0667 mL/min/kg
same,Activity,[2],Dose-dependent-effect
same,Activity,[3],Active
same,Tmax,[4],12 h
same,Drug metabolism,[5],metabolite_detected
same,Activity,[6],<10 mM
same,EC50,[7],30 nmol/kg
same,AUC,[8],67.28 h/µg/mL
same,EC50,[9],0.37 pM
same,Vd,[10],0.15 L/kg
same,Tmax,[11],12 h
same,half-life,[12],24 h
same,AUC,[13],28.81 h/µg/mL
same,Kd,[14],520000 pM
same,Ratio EC50,[15],5.38
same,clearance,[16],0.25 mL/min/kg
same,EC50,[17],0.21 pM
same,MRT,[18],18.1 h
same,Activity,[19],<10 mM
same,half-life,[20],32 h
same,MRT,[21],18 h
same,Activity,[22],Active
same,half-life,[23],32 h
same,Drug metabolism,[24],metabolite_detected
same,Vd,[25],0.056 L/kg
same,remaining at 96 h,[26],40%
same,Activity,[27],Active
same,AUC,[28],111.886 h/µg/mL
same,Kd,[29],390000 pM
same,EC50,[30],1.99 pM
same,AUC,[31],123.884 h/µg/mL

# — ChEMBL document CHEMBL6109125, “A New Protractor Potentiates Glucagon-Like Peptide 1 with Slow-Release Depot and Long-Term Action” (J Med Chem, 2025)
